Experimental data: PubChem BioAssay AID1996
In brackets after ≈: the same amount, converted by molar mass.

Details: buffer; pH 7.4; 200.0 µM

Compound | solubility kinetic [µg/mL]
COc1ccccc1NC(=O)c1cc(Cl)nnc1Cl | > 44.7
CC(C)CC(=O)Nc1ccc2c(c1)nc(CCN1CCCCC1)n2C | > 51.4
O=C(CSc1ncnc2scc(-c3ccccc3)c12)NC1CCS(=O)(=O)C1 (stereo not given) | 58.6 (≈ 140 µM)
COc1ccc2c(c1)C1=C(CC2)C(c2ccc(C)cc2)NC(=S)N1 (stereo not given) | 10.5 (≈ 31.2 µM)
Cc1ccc(C(C)C)c(OCCn2ccnc2C)c1.O=C(O)C(=O)O | 46.7
O=C(c1cc2ccccc2o1)N1CCCC1 | > 32.3
O=C(NC1CCCCC1)C(=S)NCCc1ccccc1 | 1.4 (≈ 4.82 µM)
Cc1cc(C)cc(NC(=O)c2cccnc2)c1 | > 33.9
CC(C)CC(=O)Nc1cc2c3c(c1)CCN3C(=O)CC2 | > 40.9
COc1ccc(C(=O)COC(=O)c2sc(C)nc2C)cc1F | 36.5 (≈ 113 µM)
O=C(CNC(=O)Cc1ccccc1)NCc1cccs1 | 41.9 (≈ 145 µM)
CCOC(=O)NC1Cc2ccccc2C1Sc1ccccn1 (stereo not given) | 44.8 (≈ 142 µM)
O=C(CNC(=O)c1ccccc1F)N/N=C/c1ccco1 | > 43.4
Cc1cc(SCc2c(F)cccc2Cl)nc(=O)[nH]1 | 39.2 (≈ 138 µM)
COc1ccc(-c2ccc(C(=O)O)o2)c([N+](=O)[O-])c1 | > 39.5
C/C=C/C(=O)OCc1csc(CC(=O)Nc2ccccc2C)n1 | > 49.6
CCOC(=O)c1c(C)[nH]c(C(=O)COC(=O)C2CC2)c1C | 7.8 (≈ 26.6 µM)
CCOc1ccc(CC(=O)N/N=C(\C)c2cccnc2)cc1 | > 44.6
CCC1CCC/C1=N\NC(=O)c1ccoc1C (stereo not given) | > 35.1
N#CC1(NC(=O)CSc2ccccn2)CCCCC1 | > 41.3
CCOc1cc(N2CCOCC2)c(OCC)cc1NC(=O)c1cccc(S(=O)(=O)N2CCOCC2)c1 | > 77.9
O=C(Nc1cc([N+](=O)[O-])ccc1O)NC1CCS(=O)(=O)C1 (stereo not given) | > 47.3

Compound | solubility kinetic [µg/mL]
CCOC(=O)CSc1nc(-c2ccccc2)ns1 | 6.3 (≈ 22.5 µM)
CCn1c(O)c(C=NCCN2CCOCC2)c(=O)[nH]c1=S | > 46.9
CC(=O)NC1(c2ccccc2)CCN(CC(=O)N2CCC(C)CC2)CC1 | > 53.6
N#Cc1ccc(NC(=O)CN2CCCC2)cc1Cl | > 39.6
Cc1nn(C)c(C)c1/C=C/C(=O)O | > 27
Cc1onc(NC(=O)NC(=O)c2c(F)cccc2Cl)c1Br | 8.1 (≈ 21.5 µM)
Cc1ccc(/C=C/C(=O)Nc2cc(S(N)(=O)=O)ccc2O)cc1 | 42.2 (≈ 127 µM)
Cc1ccc[n+](CC(=O)Nc2cccc(Cl)c2)c1.[Cl-] | > 44.6
N/C(CCS(=O)(=O)c1ccc(Cl)cc1)=N\OC(=O)c1ccccc1C(F)(F)F | 57 (≈ 131 µM)
O=C(COc1ccc2ccc(=O)oc2c1)Nc1nccs1 | 11.3 (≈ 37.4 µM)
O=C(CNC(=O)c1ccco1)NNC(=O)c1ccc(Br)cc1 | > 54.9
CCCCC(=O)N=c1sc2c(OC)ccc(OC)c2n1C | < 0.3
COC(=O)c1sccc1N/C=C(\C#N)S(=O)(=O)C(C)(C)C | 2.3 (≈ 7 µM)
CCOc1ccc(/C=C/c2[nH]c(=O)[nH]c(=O)c2[N+](=O)[O-])cc1 | 13.2 (≈ 43.5 µM)
O=C(O/N=C1\CCCc2ccccc21)c1cccs1 | < 0.6
Cc1ccc(C(=O)Oc2ccc(N3C(=O)CCC3=O)c(C)c2)cc1 | < 0.7
O=C(NCC(c1ccco1)N1CCc2ccccc2C1)c1cccc(F)c1 (stereo not given) | 28.7 (≈ 78.8 µM)
CC(=O)Nc1ccc(S(=O)(=O)Nc2nc3ccccc3nc2Nc2ccc(C(=O)O)c(O)c2)cc1 | > 74
CCOc1ccc2oc(C(=O)Nc3nccs3)c(C)c2c1 | 2.2 (≈ 7.28 µM)
COc1cccc(OCCNC(=O)c2ccc(C)cc2)c1 | 41.9 (≈ 147 µM)
O=C(c1cccc(Cl)c1)N1CCCc2ccccc21 | 33.6 (≈ 124 µM)
CCOc1ccc(-n2c(C)c(C(C)=O)c3cc(OC(C)=O)ccc32)cc1 | < 0.8

Compound | solubility kinetic [µg/mL]
CCOC(=O)c1cnc(SCC(=O)NNC(=O)c2ccco2)nc1N | > 54.8
CN(CC(=O)Nc1ccc(F)cc1)CC(=O)N1CCCCC1 | > 46.1
O=C(CCc1ccc(S(=O)(=O)N2CCOCC2)cc1)Nc1ccccc1F | > 58.9
CC(C)C[C@H](NC(=O)NC1CCCc2ccccc21)C(=O)O (stereo not given in full) | > 45.7
Cc1ccc(OC(=O)Nc2ccccc2)cc1 | 17.8 (≈ 78.3 µM)
CC(=O)Nc1sc(C)c(C)c1C(=O)OCCOc1ccccc1 | 1.6 (≈ 4.8 µM)
COc1ccc(CNC(=S)Nc2ccc(F)c(Cl)c2)cc1 | 1.8 (≈ 5.54 µM)
CC(C(=O)Nc1ccc(F)c(F)c1F)N(C)Cc1cccs1 (stereo not given) | 13.6 (≈ 41.4 µM)
Cc1cccc(NC(=O)Cn2cc(C(=O)C3CC3)c3ccccc32)c1C | 0.6 (≈ 1.73 µM)
Cc1ccc(C(=O)OCC(=O)NC2CCS(=O)(=O)C2)c(C)c1 (stereo not given) | > 48.8
O=C(Nc1nnc(C2=COCCO2)o1)c1ccc(F)cc1 | > 43.7
O=C1/C(=C/c2ccc([N+](=O)[O-])cc2)CCC1C1CCCC1 (stereo not given) | 1 (≈ 3.5 µM)
CC(=O)C1=C(O)CCCC1=NCc1nc2ccccc2[nH]1 | > 42.5
CC(=O)c1ccc(OCC(=O)OC(C)C(=O)NC2CCCCC2)cc1 (stereo not given) | > 52.1
O=C(c1ccc(Cl)cc1)N1CCn2c1nc1ccccc12 | 1.1 (≈ 3.69 µM)
COc1ccc(NC(=O)c2cc3ccccc3cc2OC)cc1 | 5.9 (≈ 19.2 µM)
Cc1ccc(S(=O)(=O)N(OCc2ccccc2)C(C)C(=O)O)cc1 (stereo not given) | 52.1 (≈ 149 µM)
COc1ccc2c(c1OC)C(=O)N(c1ccc(C)cc1)C2 | 3.2 (≈ 11.3 µM)
O=C(/C=C/c1c(F)cccc1Cl)NCc1ccc2c(c1)OCO2 | < 0.7
COc1ccc(S(=O)(=O)N2CCN(C(=O)c3cc(C)nc4ccccc34)CC2)cc1OC | > 68.3
Nc1cccc(C(=O)N/N=C/c2ccsc2)c1 | > 36.8
CN(C)CC/C=C1\c2ccccc2Sc2cc(F)c(Cl)cc21.Cl | 43

Compound | solubility kinetic [µg/mL]
Cc1cccc(C(=O)OCC(=O)Nc2ccc3c(c2)OCCO3)c1 | 8.2 (≈ 25.1 µM)
COC(=O)CC1C(=O)NCCN1C(=S)Nc1ccccc1Cl (stereo not given) | > 51.3
Cc1ccccc1Sc1ccc([N+](=O)[O-])cn1 | 7.4 (≈ 30 µM)
Cc1cc(SCc2ccc(F)cc2)nc(=O)[nH]1 | 22.1 (≈ 88.3 µM)
COc1nc(-c2cccc([N+](=O)[O-])c2)nc2ccccc12 | < 0.2
O=C(/C=C\N1CCOCC1)c1ccc(Br)cc1 | > 44.4
CC1(C)CC(=O)C=C(NCCc2ccccc2)C1 | 35.1 (≈ 144 µM)
O=C(CCN1CCN(c2ccccc2F)CC1)Nc1ccccc1Cl | > 54.3
Cc1cc(NC(=O)C(C)SCC(=O)O)no1 (stereo not given) | > 36.6
N=C1C=CC=C2C1=NC1(CCCCC1)N2O | > 32.6
O=C(COC(=O)c1ccccc1)NC1CCCC1 | > 37.1
CC(=O)c1ccc(NC(=O)[C@@H]2CCCN2C(=O)OC(C)(C)C)cc1 | > 49.9
CC1CCCC(C)N1C(=O)COC(=O)c1ccc(S(=O)(=O)N(C)c2ccccc2)cc1 (stereo not given) | 6.9 (≈ 15.5 µM)
CC(C)OP(=O)(OC(C)C)C(C)NC(=O)Cc1ccccc1 (stereo not given) | 44.4 (≈ 136 µM)
Cc1ccsc1C1C(C#N)=C(N)OC2=C1C(=O)CCC2 (stereo not given) | 41.9 (≈ 146 µM)
COC(C(=O)Nc1ccc(Br)cc1F)c1ccccc1 (stereo not given) | 26.1 (≈ 77.2 µM)
CC(=O)c1cccc(Oc2ncccn2)c1 | > 32.1
Cl.Oc1ccc(-c2csc(Nc3cccc4ccccc34)n2)cc1O | 15.2
CCOC(=O)c1sc(-c2cccc(C(F)(F)F)c2)nc1O | 36.5 (≈ 115 µM)
